Data from paper PMC7083851, “Extended pharmacodynamic responses observed upon PROTAC-mediated degradation of RIPK2” (Communications Biology, 2020).
Values joined by “and” are separate entries in the source; they are usually repeats but may differ in a detail not shown here. Equal entries are not always repeated.

Assays:
[1] = target: T1, cIAP1 (Homo sapiens, UniProt Q13490); assay type: cell-based; conditions: human PBMCs, 24 h, 1uM
T1 construct: endogenous in cells; host or cells: primary human PBMCs
T1 sequence (Q13490 whole entry): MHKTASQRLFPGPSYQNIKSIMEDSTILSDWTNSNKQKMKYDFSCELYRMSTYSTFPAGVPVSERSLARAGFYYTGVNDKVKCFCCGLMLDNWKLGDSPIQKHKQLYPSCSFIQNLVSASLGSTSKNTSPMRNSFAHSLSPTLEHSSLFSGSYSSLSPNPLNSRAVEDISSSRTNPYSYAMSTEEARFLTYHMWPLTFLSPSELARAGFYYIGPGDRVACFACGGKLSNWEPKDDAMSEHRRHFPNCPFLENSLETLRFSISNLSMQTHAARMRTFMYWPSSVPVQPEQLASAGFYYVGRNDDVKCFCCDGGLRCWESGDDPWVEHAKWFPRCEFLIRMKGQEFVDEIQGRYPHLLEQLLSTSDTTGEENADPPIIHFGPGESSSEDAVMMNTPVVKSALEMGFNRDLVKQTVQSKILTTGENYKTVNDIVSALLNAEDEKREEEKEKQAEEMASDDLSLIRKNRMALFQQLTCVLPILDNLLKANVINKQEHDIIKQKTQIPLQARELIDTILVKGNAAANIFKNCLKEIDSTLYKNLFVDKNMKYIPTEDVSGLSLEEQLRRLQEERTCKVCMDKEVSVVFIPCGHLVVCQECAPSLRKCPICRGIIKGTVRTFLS
Method: (§1) Where the assessment of cytokines was performed, L18-MDP was added to the cell culture media (1 μg/ml) or to the rat blood samples (100 ng/ml) and samples were incubated for up to 4 h. […] Samples were them spun down at 1000 g and the cell culture supernatant, plasma or serum were collected for cytokines assessment, while cell pellets were used for RIPK2 and/or cIAP1, cIAP2, and XIAP levels analysis via immunoblotting.
(§2) Simple Western immunoassay: Cell lysates were mixed with 5× concentrated master mix (Protein Simple) and denatured at 95 °C on a heat block for 5 min together with the provided ladder (Protein Simple). Antibodies were diluted in the provided buffer as following: anti-RIPK2 (1:10 or 1:50), anti-cIAP1(1:10), anti-cIAP2 (1:10), anti-XIAP (1:10), mouse anti-β-actin (Abcam - 1:1000), rabbit anti-β-actin (Abcam - 1:50) and anti-vinculin (1:100). All reagents (blocking buffer, primary and secondary antibodies, streptavadin, luminol/peroxide, separation matrix, stacking matrix and water) were added to the Protein Simple plate containing the ladder and lysates and the plate was placed in a Protein Simple Western instrument and the Simple Western default size assay protocol was used. […] The area under the peak values obtained for RIPK2, cIAP1, cIAP2 or XIAP were normalized relative to the control protein values.

[2] = target: T2, cIAP2 (Homo sapiens, UniProt Q13489); assay: cIAP2 levels in human PBMCs, 24 h, capillary immunoassay; assay type: cell-based; conditions: up to 1uM
T2 construct: endogenous in cells; host or cells: primary human PBMCs
T2 sequence (Q13489 whole entry): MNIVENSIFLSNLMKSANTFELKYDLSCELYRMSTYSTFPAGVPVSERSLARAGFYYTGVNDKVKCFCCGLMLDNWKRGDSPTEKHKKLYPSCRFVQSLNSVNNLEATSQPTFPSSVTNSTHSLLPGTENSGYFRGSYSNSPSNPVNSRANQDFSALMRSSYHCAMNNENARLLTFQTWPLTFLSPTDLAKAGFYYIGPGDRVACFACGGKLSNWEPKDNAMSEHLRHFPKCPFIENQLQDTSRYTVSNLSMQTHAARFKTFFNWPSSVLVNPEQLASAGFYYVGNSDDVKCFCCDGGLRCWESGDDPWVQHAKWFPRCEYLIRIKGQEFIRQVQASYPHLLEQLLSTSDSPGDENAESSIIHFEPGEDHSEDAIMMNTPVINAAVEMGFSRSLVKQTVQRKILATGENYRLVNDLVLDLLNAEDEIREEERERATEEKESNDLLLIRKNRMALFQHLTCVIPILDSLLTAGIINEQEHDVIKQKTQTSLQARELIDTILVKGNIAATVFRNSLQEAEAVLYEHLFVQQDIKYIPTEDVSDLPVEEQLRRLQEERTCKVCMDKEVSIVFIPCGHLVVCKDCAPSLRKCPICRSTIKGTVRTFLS
Method: Where the assessment of cytokines was performed, L18-MDP was added to the cell culture media (1 μg/ml) or to the rat blood samples (100 ng/ml) and samples were incubated for up to 4 h. For human blood, 250 ng/ml MDP (Invivogen) was added following compound treatment and the samples were further incubated for 5 h. Samples were them spun down at 1000 g and the cell culture supernatant, plasma or serum were collected for cytokines assessment, while cell pellets were used for RIPK2 and/or cIAP1, cIAP2, and XIAP levels analysis via immunoblotting.
Simple Western immunoassay: Cell lysates were mixed with 5× concentrated master mix (Protein Simple) and denatured at 95 °C on a heat block for 5 min together with the provided ladder (Protein Simple). Antibodies were diluted in the provided buffer as following: anti-RIPK2 (1:10 or 1:50), anti-cIAP1(1:10), anti-cIAP2 (1:10), anti-XIAP (1:10), mouse anti-β-actin (Abcam - 1:1000), rabbit anti-β-actin (Abcam - 1:50) and anti-vinculin (1:100). […] All samples were analyzed using the associated Compass software 3.1.7. […]
Cell viability was assessed by using Cell Titer
Kit (Promega) according to the manufacturer’s instructions. Samples were analysed using […]

[3] = system: L18-MDP-induced cytokine release; assay: In vivo L18-MDP acute inflammation model, serum cytokines (TNFα, IL-6, IL-8); design: species or system rat; cytokine level (fig 6a) / cytokine level (fig 6b) / cytokine level (fig 6c): unit not given here; conditions: for cytokine level (fig 6a) / cytokine level (fig 6b) / cytokine level (fig 6c): serum, individual rats, beside L18-MDP control;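 for cytokine level (fig 6a): time is length of PROTAC pretreatment before a 2 h L18-MDP challenge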;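 for cytokine level (fig 6b): time is length of PROTAC pretreatment before a 2 h L18-MDP challenge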;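 for cytokine level (fig 6c): time is length of PROTAC pretreatment before a 2 h L18-MDP challenge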
Method: In vivo L18-MDP administration to rodents results in an acute inflammatory response characterised by the rapid production of inflammatory cytokines. […]. […]. Blood concentrations of 6 and 7 tracked closely and dropped below the LLQ after 24 h.
. Cytokine levels were determined in serum generated from the terminal blood samples and in tissue lysates as detailed below.
(§3) Cytokine measurement assay: Cytokine levels were measured in rat plasma or rat PBMCs cell culture supernatants using rat V-Plex TNFα, in human plasma or human PBMCs cell culture supernatants with either TNFα tissue culture or 7-plex kit. Rat serum and tissues samples from the in vivo L18-MDP acute inflammation model were analyzed using the rat TNFα, Il-6 and IL-8 U-Plex kits. All kits provided by Meso Scale Discovery (MSD). Levels of cytokines spontaneously released from human colon biopsies cell culture supernatants were measured using Human IL-1 beta/IL-1F2 DuoSet ELISA (Bio-techne), Human IL-6 ELISA (Immunotools) and Human TNF-alpha DuoSet ELISA (Bio-techne). All samples were processed accordingly to the manufacturer’s instructions. The MSD plates were analyzed using the MSD sector imager 6000 plate reader and cytokines concentration (pg/ml) was obtained by using the MSD DISCOVERY WORKBENCH software version 4.0.12.1
For in vivo studies, RIPK2:tubulin ratios and cytokine levels from each individual experiment were analysed either using a One-way ANOVA with Dunnet’s post-test or a two way ANOVA using GraphPad Prism 5.0.4 to determine statistical significance with 95% confidence levels.

[4] = system: MDP-induced TNFα release; assay: MDP-induced TNFα release in human whole blood; assay type: cell-based; conditions: inhibition of MDP-induced TNFα release
Method: (§4) Before treatment with compound or vehicle, THP1 cells, human and rat PBMCs were counted using Vi-Cell cell counter (Invitrogen) and adjusted to a final cell density of […] using complete growth medium. Cells or whole blood were treated with vehicle (0.1% DMSO) or fixed concentrations of compound up to 1 μM in half log unit increments and incubated for the time period indicated in the figure.
(§5) Where the assessment of cytokines was performed, L18-MDP was added to the cell culture media (1 μg/ml) or to the rat blood samples (100 ng/ml) and samples were incubated for up to 4 h. […]
as §3, with “All kits provided by Meso Scale Discovery (MSD).” left out, “All samples were processed accordingly to the manufacturer’s instructions.” left out, “4.0.12.1 […]” for “4.0.12.1”

[5] = system: L18-MDP-stimulated TNFα release; assay: L18-MDP-stimulated TNFα release in rat whole blood; assay type: cell-based; conditions: inhibition of L18-MDP-stimulated TNFα release
Method: as §4, §5
as §3, with “All kits provided by Meso Scale Discovery (MSD).” left out, “All samples were processed accordingly to the manufacturer’s instructions.” left out, “4.0.12.1 […]” for “4.0.12.1”

[6] = ChromLogD7.4 high-throughput chromatographic lipophilicity; assay type: physicochemical
[7] = target: RIPK2 (Homo sapiens, UniProt O43353); assay: RIPK2 degradation in human PBMCs (immunoassay); assay type: cell-based; design: endogenous in cells; host or cells: primary human PBMCs from leukodepletion filters (NHSBT); conditions: 24 h
Chain of RIPK2 (O43353 whole entry): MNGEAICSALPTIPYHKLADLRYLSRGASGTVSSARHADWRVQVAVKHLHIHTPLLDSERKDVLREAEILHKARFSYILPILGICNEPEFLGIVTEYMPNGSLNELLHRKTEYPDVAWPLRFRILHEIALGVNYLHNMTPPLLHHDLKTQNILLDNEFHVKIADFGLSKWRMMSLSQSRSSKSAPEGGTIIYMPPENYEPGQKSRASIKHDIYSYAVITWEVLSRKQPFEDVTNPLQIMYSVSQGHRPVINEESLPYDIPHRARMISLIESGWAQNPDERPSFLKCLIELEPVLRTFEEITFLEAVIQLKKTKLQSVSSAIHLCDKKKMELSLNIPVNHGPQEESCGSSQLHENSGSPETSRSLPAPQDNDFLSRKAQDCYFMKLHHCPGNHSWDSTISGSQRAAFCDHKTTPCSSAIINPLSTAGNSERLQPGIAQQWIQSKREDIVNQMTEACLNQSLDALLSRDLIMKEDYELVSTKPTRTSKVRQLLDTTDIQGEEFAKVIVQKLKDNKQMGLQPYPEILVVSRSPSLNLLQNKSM
Method: PBMCs were isolated from leukodepletion filter from platelet aphaeresis supplied by National Health System Blood and Transplant—NHSBT Apheresed at NHBST.
as §4, §1, §2
In vitro experimental data were analyzed using a 4-parameter logistic equation in GraphPad Prism 5.0.4. to generate an estimate of the half-maximal concentration and maximal degradation, DC50 and Dmax value respectively, for concentration-degradation relationships. Cytokine levels were analyzed in a similar manner to yield IC50 and Imax values. […] Where analysis to a sigmoidal relationship was not possible, the data points are shown as mean ± s.e.m.

For `CN[C@@H](C)C(=O)N[C@H](C(=O)N1C[C@@H](NC(=O)c2cnc(N3CCN(CCCOc4cc5ncnc(Nc6n[nH]c(C)c6C)c5cc4S(=O)(=O)C(C)(C)C)CC3)cn2)C[C@H]1C(=O)Nc1c(F)cccc1F)C(C)(C)C` [PROTAC 6], the “reduction in cIAP1 levels” value [1] was ~ 25%, the “change in cIAP2 protein levels, in words” value [2] was “no change in protein levels” and the “inhibition of serum cytokines” value ([3]; rat, 0.3 mg/kg SC, intravenous L18-MDP challenge, first three days) was > 75%. For the same compound, the “cytokine level (fig 6a)” value ([3]; time 6 h) was 18.49 (2×) and 16.66 and 19.87 and 20.63, the “cytokine level (fig 6b)” value ([3]; time 6 h) was 1.67 and 2.89 and 2.19 and 1.98 and 1.58 and the “cytokine level (fig 6c)” value ([3]; time 6 h) was 4 (3×) and 5 and 3. The “cytokine level (fig 6a)” value ([3]; time 24 h) was 17.80 and 19.20 and 17.38 and 15.28 and 17.94, the “cytokine level (fig 6b)” value ([3]; time 24 h) was 3.64 and 5.77 and 5.56 and 2.08 and 8.31 and the “cytokine level (fig 6c)” value ([3]; time 24 h) was 1 (3×) and 2 (2×). The “cytokine level (fig 6a)” value ([3]; time 72 h) was 19.88 and 25.30 and 22.33 and 26.08 and 26.21, the “cytokine level (fig 6b)” value ([3]; time 72 h) was 18.18 and 42.78 and 20.80 and 21.32 and 12.42 and the “cytokine level (fig 6c)” value ([3]; time 72 h) was 19 and 9 and 13 and 7 and 24. The “cytokine level (fig 6a)” value ([3]; time 240 h) was 63.85 and 82.37 and 43.93 and 24.16 and 36.40, the “cytokine level (fig 6b)” value ([3]; time 240 h) was 64.23 and 50.00 and 38.00 and 38.38 and 36.37 and the “cytokine level (fig 6c)” value ([3]; time 240 h) was 28 and 68 and 85 and 81 and 23. The “cytokine level (fig 6a)” value ([3]; time 408 h) was 65.92 and 78.49 and 54.66 and 71.18 and 46.33, the “cytokine level (fig 6b)” value ([3]; time 408 h) was 61.45 and 97.28 and 63.67 and 57.26 and 26.18 and the “cytokine level (fig 6c)” value ([3]; time 408 h) was 30 and 38 and 69 and 58 and 40.
In the case of `CN[C@@H](C)C(=O)N[C@H](C(=O)N1CCC[C@H]1c1nc(C(=O)c2ccc(F)cc2)cs1)C1CCN(C(=O)c2cnc(N3CCN(CCOc4cc5ncnc(Nc6n[nH]c(C)c6C)c5cc4S(=O)(=O)C(C)(C)C)CC3)nc2)CC1` [PROTAC 4], the “hWB MDP pIC50 ± SEM (n)” value [4] is reported as 7.7 ± 0.05 (4), the “rWB MDP pIC50 ± SEM (n)” value [5] is reported as 7.7 ± 0.16 (4) and the ChromLogD7.4 [6] is reported as 4.2. For the same compound, the “hPBMC pDC50 ± SEM, 24 h (n = 3)” value ([7]; RIPK2 degradation) was 7.9 ± 0.2 and the “hPBMC Dmax ± SEM, 24 h (n = 3)” value ([7]; maximal RIPK2 degradation) was 69.2 ± 11.5%.
